In PMC7616174, “Development of Novel 4-Arylpyridin-2-one and 6-Arylpyrimidin-4-one Positive Allosteric Modulators of the M1 Muscarinic Acetylcholine Receptor” (ChemMedChem, 2020):
Read-outs that look alike come from different tables or passages of the source.

Legend:
hM1 mAChR [1] = target: T1, hM1 mAChR (Homo sapiens, UniProt P11229); assay: IP1 accumulation assay (ACh concentration-response curves in absence or presence of modulator); format: cell-based; details: for αβ (functional cooperativity with ACh) / τB (intrinsic efficacy of the modulator) / log τB (logarithm of intrinsic efficacy of the modulator) / log αβ (logarithm of functional cooperativity between ACh and modulator): IP1 accumulation; for αβ (functional cooperativity with ACh) / τB (intrinsic efficacy of the modulator): antilog, in parentheses; for log τB (logarithm of intrinsic efficacy of the modulator) / log αβ (logarithm of functional cooperativity between ACh and modulator): operational model; for log αβ (logarithm of functional cooperativity between ACh and modulator): pKB constrained to binding value; for activation at 1 µM: read-out: Δbaseline [1 μM]: change in basal response in presence of M1 PAM compared to control curve; for activation at 10 µM: read-out: Δbaseline [10 μM]: change in basal response in presence of M1 PAM compared to control curve
T1 construct: expressed in transfected cells
T1 sequence (P11229 1-460): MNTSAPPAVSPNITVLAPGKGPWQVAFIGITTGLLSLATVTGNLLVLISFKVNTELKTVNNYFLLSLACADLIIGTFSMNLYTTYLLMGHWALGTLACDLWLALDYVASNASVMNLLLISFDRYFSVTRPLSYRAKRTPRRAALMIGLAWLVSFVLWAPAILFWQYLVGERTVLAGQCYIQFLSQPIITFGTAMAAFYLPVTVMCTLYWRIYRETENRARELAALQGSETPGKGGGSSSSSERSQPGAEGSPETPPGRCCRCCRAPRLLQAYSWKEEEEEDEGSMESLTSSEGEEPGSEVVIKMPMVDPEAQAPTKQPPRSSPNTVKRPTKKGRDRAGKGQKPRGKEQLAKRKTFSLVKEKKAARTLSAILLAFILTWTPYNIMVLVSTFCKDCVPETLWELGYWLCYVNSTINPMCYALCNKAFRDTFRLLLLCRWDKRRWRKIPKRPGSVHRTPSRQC

hM1 mAChR [2] = target: T1, hM1 mAChR; assay: Whole-cell [3H]NMS equilibrium competition radioligand binding; details: [3H]NMS binding; for α (binding cooperativity with ACh): antilog
Method: To determine the affinity (pKB) of the allosteric modulators for the allosteric site, and their binding cooperativity with ACh (log αACh) at the M1 mAChR, whole cell equilibrium competition binding studies were performed, using [^3H]NMS to label the orthosteric site.
FlpIn Chinese hamster ovary (CHO) cells stably expressing the hM1 mAChR were grown in Dulbecco’s modified Eagle’s medium (DMEM) (Invitrogen, Carlsbad, CA) supplemented with 5% foetal bovine serum (FBS) (Thermo-Trace, Melbourne, Australia) and 300 μg/mL G418 (Invitrogen, Carlsbad, CA). The cells were plated at 50,000 cells per well of 96-well white clear bottom plates (Greiner Bio-one, Kremsmünster, Austria), and were grown overnight. The following day, cells were washed twice with Phosphate Buffered Saline (PBS), and incubated with increasing concentrations of ACh (Sigma) in the absence or presence of increasing concentrations of each modulator and 0.2 nM [^3H]NMS (PerkinElmer Life Sciences) in binding buffer (20 mM HEPES, 100 mM NaCl, 10 mM MgCl2, pH 7.4) for 5 h at room temperature. Nonspecific binding was determined using atropine at the final concentration of 10 μM. The assays were terminated by rapid removal of the unbound radioligand followed by two washes with 100 μL/well ice-cold 0.9% NaCl buffer. Radioactivity was determined by addition of 100 μL/well Ultima gold (PerkinElmer Life Sciences) and counting in a MicroBeta plate reader (PerkinElmer Life Sciences).
Binding interaction studies with allosteric ligands were fitted to the following allosteric ternary complex model [Eq. (2)][15] Y=Bmax|A|/[Λ]+[KAKB/α^′[B]+KB][1+[I]/K1+[B]/KB+α[I][B]/KIKB] where Bmax is the total number of receptors, [A], [B] and [I] denote the concentrations of radioligand, allosteric modulator, and orthosteric ligand, respectively; KA, KB and KI are their respective equilibrium dissociation constants. α’ and α are the affinity cooperativity factors between the allosteric ligand and radioligand or the allosteric modulator and ACh, respectively. Values of α or α’ > 1 denote positive cooperativity, values < 1 but > 0 denote negative cooperativity, and a value of 1 indicates neutral coopera-tivity.

[3] = 1 μM modulator, FlpIn CHO hM1 cells, mean ± SEM, 3 experiments
[4] = 10 μM modulator, FlpIn CHO hM1 cells, mean ± SEM, 3 experiments
[5] = allosteric ternary complex model, mean ± SEM, read-out: pKB (negative logarithm of the allosteric modulator equilibrium dissociation constant) (converted)

ΔpEC50 [1 μM]: change in ACh pEC50 in presence of M1 PAM compared to control curve (hM1 mAChR [1]; [3]) | ΔpEC50 [10 μM]: change in ACh pEC50 in presence of M1 PAM compared to control curve (hM1 mAChR [1]; [4]) | αβ (functional cooperativity with ACh) (hM1 mAChR [1]) | τB (intrinsic efficacy of the modulator) (hM1 mAChR [1]) | log τB (logarithm of intrinsic efficacy of the modulator) (hM1 mAChR [1]) | log αβ (logarithm of functional cooperativity between ACh and modulator) (hM1 mAChR [1]) | activation at 1 µM (hM1 mAChR [1]) [%] | activation at 10 µM (hM1 mAChR [1]) [%] | Kb (hM1 mAChR [2]; KB, antilog of pKB, in parentheses) [µM] | α (binding cooperativity with ACh) (hM1 mAChR [2]; in parentheses) | log αACh (logarithm of binding cooperativity between ACh and modulator) (hM1 mAChR [2]; mean ± SEM) | Kb (hM1 mAChR [2]; pKB (negative logarithm of the allosteric modulator equilibrium dissociation constant), allosteric ternary complex model, mean ± SEM) [µM] | activation at 1 µM (hM1 mAChR [1]; [3]) [%] | activation at 10 µM (hM1 mAChR [1]; [4]) [%] | Kb (hM1 mAChR [2]; [5]) [µM] | Structure (SMILES)
1.52±0.14 | 1.28±0.42 | 363 | 6 | 0.78±0.02 | 2.56±0.07 | 55.1 ± 2.4 | 85.3 ± 2.4 | 3 | 240 | 2.38±0.13 | 3.16 |  |  |  | Cn1cc(-c2ccc(COc3ccccc3-c3cc(=O)n(C4CCCCC4O)cn3)cc2)cn1 (stereo not shown) [Compound 2, 3-(2-Hydroxycyclohexyl)-6-(2-((4-(1-methyl-1H-pyrazol-4-yl)benzyl)oxy)phenyl)pyrimidin-4(3H)-one]
0.76±0.07 | 1.41±0.10 | 316 | 4 | 0.56±0.05 | 2.50±0.08 |  |  |  | 240 | 2.38±0.39 |  | 4.8 ± 1.9 | 20.5 ± 2.5 | 38 | Cn1cc(-c2ccc(COc3ncccc3-c3ccn(C4CCCCC4O)c(=O)c3)cc2)cn1 (stereo not shown) [Compound 7f, 1’-(2-Hydroxycyclohexyl)-2-((4-(1-methyl-1H-pyrazol-4-yl)benzyl)oxy)-[3,4’-bipyridin]-2’(1’H)-one]
0.73±0.08 | 1.33±0.17 | 118 | 3 | 0.45±0.03 | 2.07±0.08 |  |  |  | 72 | 1.86±0.28 |  | 2.1 ± 2.1 | 63.6 ± 2.3 | 16.6 | CN(C)C(=O)Cn1ccc(-c2ccccc2OCc2ccc(-c3cnn(C)c3)cc2)cc1=O [Compound 13c, N,N-Dimethyl-2-(4-(2-((4-(1-methyl-1H-pyrazol-4-yl)benzyl)oxy)phenyl)-2-oxopyridin-1(2H)-yl)acetamide]
